In ChEMBL document CHEMBL5518215, “Unlocking Antibacterial Potential: Key-Site-Based Regulation of Antibacterial Spectrum of Peptides” (J Med Chem, 2024):

Legend:
Enterococcus faecalis [1] = test: Antimicrobial activity against Enterococcus faecalis 29212 assessed as absence bacterial growth measured after 18 to 24 hrs incubation by NCCLS method; format: functional; details: time 18-24 hrs
[2] = Antimicrobial activity against Salmonella pullorum C7913 assessed as bacterial killing measured after 16 hrs incubation; format: functional, Salmonella enterica subsp. enterica serovar Pullorum; details: Salmonella enterica
Salmonella typhimurium [3] = test: Antimicrobial activity against Salmonella typhimurium C7731 assessed as absence bacterial growth measured after 18 to 24 hrs incubation by NCCLS method; format: functional, Salmonella enterica subsp. enterica serovar Typhimurium; details: Salmonella enterica, time 18-24 hrs
Escherichia coli [4] = test: Antimicrobial activity against Escherichia coli 25922 assessed as absence bacterial growth measured after 18 to 24 hrs incubation in presence of NH4Cl by NCCLS method; format: functional; details: time 18-24 hrs
Listeria monocytogenes [5] = test: Antimicrobial activity against Listeria monocytogenes 1.10753 assessed as absence bacterial growth measured after 18 to 24 hrs incubation by NCCLS method; format: functional; details: time 18-24 hrs
[6] = Cytotoxicity against mouse RAW264.7 cells assessed as cell survival rate measured after 8 hrs by MTT assay; format: toxicity, cell-based
Escherichia coli [7] = test: Antimicrobial activity against Escherichia coli 25922 assessed as absence bacterial growth measured after 18 to 24 hrs incubation by NCCLS method; format: functional; details: time 18-24 hrs
Escherichia coli [8] = test: Antimicrobial activity against Escherichia coli 25922 assessed as absence bacterial growth measured after 18 to 24 hrs incubation in presence of NaCl by NCCLS method; format: functional; details: time 18-24 hrs
[9] = system: Staphylococcus epidermidis; test: Antimicrobial activity against Staphylococcus epidermidis 12228 assessed as absence bacterial growth measured after 18 to 24 hrs incubation by NCCLS method; format: functional; details: time 18-24 hrs
Escherichia coli [10] = test: Antimicrobial activity against Escherichia coli K88 assessed as absence bacterial growth measured after 18 to 24 hrs incubation by NCCLS method; format: functional; details: time 18-24 hrs
[11] = Antimicrobial activity against Salmonella pullorum C7913 assessed as absence bacterial growth measured after 18 to 24 hrs incubation by NCCLS method; format: functional, Salmonella enterica subsp. enterica serovar Pullorum; details: Salmonella enterica, time 18-24 hrs
Staphylococcus aureus [12] = test: Antimicrobial activity against Staphylococcus aureus 29213 assessed as absence bacterial growth measured after 18 to 24 hrs incubation by NCCLS method; format: functional; details: time 18-24 hrs
[13] = Hemolytic activity in human RBC at effective concentration at 128 uM measured after 1 hr by microplate reader relative to control; format: toxicity, cell-based, Erythrocyte; details: human red blood cells (erythrocytes), read-out: Activity
Escherichia coli [14] = test: Antimicrobial activity against Escherichia coli 25922 assessed as absence bacterial growth measured after 18 to 24 hrs incubation in presence of FeCl3 by NCCLS method; format: functional; details: time 18-24 hrs
Erythrocyte = test: Hemolytic activity in human RBC at effective concentration measured after 1 hr by microplate reader analysis; format: toxicity, cell-based
Salmonella typhimurium [15] = test: Antimicrobial activity against Salmonella typhimurium 14028 assessed as absence bacterial growth measured after 18 to 24 hrs incubation by NCCLS method; format: functional, Salmonella enterica subsp. enterica serovar Typhimurium; details: Salmonella enterica, time 18-24 hrs
Staphylococcus aureus [16] = test: Antimicrobial activity against Methicillin-resistant Staphylococcus aureus 43300 assessed as absence bacterial growth measured after 18 to 24 hrs incubation by NCCLS method; format: functional; details: time 18-24 hrs
Escherichia coli [17] = test: Antimicrobial activity against Escherichia coli 25922 assessed as absence bacterial growth measured after 18 to 24 hrs incubation in presence of ZnCl2 by NCCLS method; format: functional; details: time 18-24 hrs
Staphylococcus aureus [18] = test: Antimicrobial activity against Methicillin-resistant Staphylococcus aureus 43300 assessed as bacterial killing measured after 16 hrs incubation; format: functional
Staphylococcus aureus [19] = test: Antimicrobial activity against Staphylococcus aureus 29213 assessed as absence bacterial growth measured after 18 to 24 hrs incubation by NCCLS m; format: functional; details: time 18-24 hrs
Escherichia coli [20] = test: Antimicrobial activity against Escherichia coli 25922 assessed as absence bacterial growth measured after 18 to 24 hrs incubation in presence of KCl by NCCLS method; format: functional; details: time 18-24 hrs
Escherichia coli [21] = test: Antimicrobial activity against Escherichia coli 25922 assessed as absence bacterial growth measured after 18 to 24 hrs incubation in presence of 25% serum by NCCLS method; format: functional; details: time 18-24 hrs
Escherichia coli [22] = test: Antimicrobial activity against Escherichia coli 25922 assessed as bacterial killing measured after 16 hrs incubation; format: functional
[23] = Cytotoxicity against human HEK-293T cells assessed as cell survival rate measured after 8 hrs by MTT assay; format: toxicity, cell-based
Pseudomonas aeruginosa [24] = test: Antimicrobial activity against Pseudomonas aeruginosa 27853 assessed as bacterial killing measured after 16 hrs incubation; format: functional
Bacillus cereus [25] = test: Antimicrobial activity against Bacillus cereus 1.932 assessed as absence bacterial growth measured after 18 to 24 hrs incubation by NCCLS method; format: functional; details: time 18-24 hrs
Escherichia coli [26] = test: Antimicrobial activity against Escherichia coli 25922 assessed as absence bacterial growth measured after 18 to 24 hrs incubation in presence of MgCl2 by NCCLS method; format: functional; details: time 18-24 hrs
Acinetobacter baumannii [27] = test: Antimicrobial activity against Acinetobacter baumannii 1.6769 assessed as bacterial killing measured after 16 hrs incubation; format: functional
Bacillus cereus [28] = test: Antimicrobial activity against Bacillus cereus 1.932 assessed as bacterial killing measured after 16 hrs incubation; format: functional
[29] = system: Staphylococcus epidermidis; test: Antimicrobial activity against Staphylococcus epidermidis 12228 assessed as bacterial killing measured after 16 hrs incubation; format: functional
Salmonella typhimurium [30] = test: Antimicrobial activity against Salmonella typhimurium C7731 assessed as bacterial killing measured after 16 hrs incubation; format: functional, Salmonella enterica subsp. enterica serovar Typhimurium; details: Salmonella enterica
[31] = Cytotoxicity against porcine IPEC-J2 cells assessed as cell survival rate measured after 8 hrs by MTT assay; format: toxicity, cell-based, Sus scrofa; details: pig
Escherichia coli [32] = test: Antimicrobial activity against Escherichia coli 25922 assessed as absence bacterial growth measured after 18 to 24 hrs incubation in presence of 12.5% serum by NCCLS method; format: functional; details: time 18-24 hrs
Acinetobacter baumannii [33] = test: Antimicrobial activity against Acinetobacter baumannii 1.6769 assessed as absence bacterial growth measured after 18 to 24 hrs incubation by NCCLS method; format: functional; details: time 18-24 hrs
Escherichia coli [34] = test: Antimicrobial activity against Escherichia coli K88 assessed as bacterial killing measured after 16 hrs incubation; format: functional
Enterococcus faecalis [35] = test: Antimicrobial activity against Enterococcus faecalis 29212 assessed as bacterial killing measured after 16 hrs incubation; format: functional
Salmonella typhimurium [36] = test: Antimicrobial activity against Salmonella typhimurium 14028 assessed as bacterial killing measured after 16 hrs incubation; format: functional, Salmonella enterica subsp. enterica serovar Typhimurium; details: Salmonella enterica
Pseudomonas aeruginosa [37] = test: Antimicrobial activity against Pseudomonas aeruginosa 27853 assessed as absence bacterial growth measured after 18 to 24 hrs incubation by NCCLS method; format: functional; details: time 18-24 hrs
Escherichia coli [38] = test: Antimicrobial activity against Escherichia coli 25922 assessed as absence bacterial growth measured after 18 to 24 hrs incubation in presence of 50% serum by NCCLS method; format: functional; details: time 18-24 hrs
Staphylococcus aureus [39] = test: Antimicrobial activity against Staphylococcus aureus 29213 assessed as bacterial killing measured after 16 hrs incubation; format: functional
Staphylococcus aureus [40] = test: Antimicrobial activity against Staphylococcus aureus 25923 assessed as bacterial killing measured after 16 hrs incubation; format: functional
Listeria monocytogenes [41] = test: Antimicrobial activity against Listeria monocytogenes 1.10753 assessed as bacterial killing measured after 16 hrs incubation; format: functional

## H-LKLWLKGGKLWLKGGKLWLKG-NH2
Enterococcus faecalis [1]
  MIC: > 32 µM
[2]
  MBC: 2 µM
Salmonella typhimurium [3]
  MIC: > 32 µM
Escherichia coli [4]
  MIC: 8 µM
Listeria monocytogenes [5]
  MIC: > 32 µM
[6]
  IC50 at 8 h: > 64 µM
Escherichia coli [7]
  MIC: 4 µM
Escherichia coli [8]
  MIC: > 32 µM
[9]
  MIC: > 32 µM
Escherichia coli [10]
  MIC: 1 µM
[11]
  MIC: 2 µM
Staphylococcus aureus [12]
  MIC: > 32 µM
[13]
  hemolysis at 1 h, 128 µM: < 10%
Escherichia coli [14]
  MIC: 8 µM
Erythrocyte
  HC10: > 128 µM
Salmonella typhimurium [15]
  MIC: > 32 µM
Staphylococcus aureus [16]
  MIC: > 32 µM
Escherichia coli [17]
  MIC: 8 µM
Staphylococcus aureus [18]
  MBC: > 32 µM
Staphylococcus aureus [19]
  MIC: > 32 µM
Escherichia coli [20]
  MIC: 8 µM
Escherichia coli [21]
  MIC: > 32 µM
Escherichia coli [22]
  MBC: 16 µM
[23]
  IC50 at 8 h: > 64 µM
Pseudomonas aeruginosa [24]
  MBC: 32 µM
Bacillus cereus [25]
  MIC: > 32 µM
Escherichia coli [26]
  MIC: > 32 µM
Acinetobacter baumannii [27]
  MBC: 16 µM
Bacillus cereus [28]
  MBC: > 32 µM
[29]
  MBC: > 32 µM
Salmonella typhimurium [30]
  MBC: > 32 µM
[31]
  IC50 at 8 h: 33.4 µM
Escherichia coli [32]
  MIC: 32 µM
Acinetobacter baumannii [33]
  MIC: 16 µM
Escherichia coli [34]
  MBC: 1 µM
Enterococcus faecalis [35]
  MBC: > 32 µM
Salmonella typhimurium [36]
  MBC: > 32 µM
Pseudomonas aeruginosa [37]
  MIC: 32 µM
Escherichia coli [38]
  MIC: > 32 µM
Staphylococcus aureus [39]
  MBC: > 32 µM
Staphylococcus aureus [40]
  MBC: > 32 µM
Listeria monocytogenes [41]
  MBC: > 32 µM

## H-CKLWLKGGKLWLKGGKLWLKG-NH2
Enterococcus faecalis [1]
  MIC: > 32 µM
[2]
  MBC: 2 µM
Salmonella typhimurium [3]
  MIC: > 32 µM
Escherichia coli [4]
  MIC: > 32 µM
Listeria monocytogenes [5]
  MIC: > 32 µM
[6]
  IC50 at 8 h: 60.1 µM
Escherichia coli [7]
  MIC: > 32 µM
Escherichia coli [8]
  MIC: > 32 µM
[9]
  MIC: > 32 µM
Escherichia coli [10]
  MIC: 2 µM
[11]
  MIC: 2 µM
Staphylococcus aureus [12]
  MIC: > 32 µM
[13]
  hemolysis at 1 h, 128 µM: < 10%
Escherichia coli [14]
  MIC: > 32 µM
Erythrocyte
  HC10: > 128 µM
Salmonella typhimurium [15]
  MIC: > 32 µM
Staphylococcus aureus [16]
  MIC: > 32 µM
Escherichia coli [17]
  MIC: > 32 µM
Staphylococcus aureus [18]
  MBC: > 32 µM
Staphylococcus aureus [19]
  MIC: > 32 µM
Escherichia coli [20]
  MIC: > 32 µM
Escherichia coli [21]
  MIC: > 32 µM
Escherichia coli [22]
  MBC: > 32 µM
[23]
  IC50 at 8 h: > 64 µM
Pseudomonas aeruginosa [24]
  MBC: > 32 µM
Bacillus cereus [25]
  MIC: > 32 µM
Escherichia coli [26]
  MIC: > 32 µM
Acinetobacter baumannii [27]
  MBC: > 32 µM
Bacillus cereus [28]
  MBC: > 32 µM
[29]
  MBC: > 32 µM
Salmonella typhimurium [30]
  MBC: > 32 µM
[31]
  IC50 at 8 h: 14.3 µM
Escherichia coli [32]
  MIC: 32 µM
Acinetobacter baumannii [33]
  MIC: > 32 µM
Escherichia coli [34]
  MBC: 2 µM
Enterococcus faecalis [35]
  MBC: > 32 µM
Salmonella typhimurium [36]
  MBC: > 32 µM
Pseudomonas aeruginosa [37]
  MIC: > 32 µM
Escherichia coli [38]
  MIC: > 32 µM
Staphylococcus aureus [39]
  MBC: > 32 µM
Staphylococcus aureus [40]
  MBC: > 32 µM
Listeria monocytogenes [41]
  MBC: > 32 µM
